# Laboratory results: patent publication US20080318954A1, “Compounds” (Cyclacel Limited, priority 2004, published 2008)
# How the values were obtained:
# [1] = target: T1, GSK-3β (Oryctolagus cuniculus, UniProt G1T8E2); assay: GSK-3β kinase assay; assay type: biochemical, rabbit; details: read-out: Kinase inhibition IC50 GSK3β
# T1 construct: isolated from a strain of E. coli that carries a clone expressing GSK-3β derived from a rabbit skeletal muscle cDNA library [34]
# Description: GSK-3 was obtained from New England Biolabs (UK) Ltd., Hitchin, Herts. The recombinant enzyme was isolated from a strain of E. coli that carries a clone expressing GSK-3β derived from a rabbit skeletal muscle cDNA library. Inhibition of GSK-3 function was assessed by measurement of phosphorylation of CREB phosphopeptide KRREILSRRPpSYR in the presence of test compounds. Using a 96-well assay format, GSK3 (7.5 U) was incubated for 30 min at 30° C. in a total volume of 25 μL in 20 mM MOPS pH 7.2, 25 mM β-glycerophosphate, 5 mM EGTA, 1 mM DTT, 1 mM […], 40 μM CREB peptide, 15 mM MgCl2 and 100 μM ATP (containing 0.25 μCi [γ-^32P]-ATP) in the presence of varying concentrations of test compound. The samples were transferred to 96-well p81 filter plates (Whatman Polyfiltronics, Kent, UK), and the plates were washed 4 times with 200 μL/well of 75 mM aq orthophosphoric acid. Scintillation liquid (50 μL) was added to each well, and incorporated radioactivity for each sample was determined using a scintillation counter (TopCount, Packard Instruments, Pangbourne, Berks, UK).
# [2] = target: T2, CDK2/cyclin E (Homo sapiens, UniProt P24941); assay: CDK/cyclin kinase assay, CDK2/cyclin E; assay type: biochemical; details: for IC50: read-out: Kinase inhibition IC50 CDK2/E; for inhibition at 1 µM: primary screening at 1 μM
# T2 construct: His6 (N); made in house; host or cells: Sf9 insect cells (baculovirus)
# Description: (§1) CDK4/cyclin D1, CDK1/cyclin B, CDK2/cyclin E, CDK2/cyclin A, CDK9/cyclin T1 and CDK7/cyclin H, all with a His6 tag on the N-terminus, were expressed in Sf9 insect cells using an appropriate baculovirus construct. Sf9 culture (1.6×10^6 cells/mL) was infected (MOI of 3) for two days. The cells were harvested by low speed centrifugation and the protein was purified from the insect cell pellet by metal affinity chromatography. In short: the insect cell pellet was lysed in Buffer A (10 mM Tris-HCl pH 8.0, 150 mM NaCl, 0.02% NP-40, 5 mM β-mercaptoethanol, 20 mM NaF, 1 mM Na3VO4, and Sigma Protease Inhibitor Cocktail) by sonication. The soluble fraction was cleared by centrifugation and loaded onto Ni-NTA-Agarose (Qiagen). Non-bound protein was washed off with 300 mM NaCl, 5-15 mM imidazole in buffer A and the bound protein was eluted with buffer A supplemented with 250 mM imidazole. The purified proteins were extensively dialyzed against storage buffer (20 mM HEPES pH 7.4, 50 mM NaCl, 2 mM DTT, 1 mM EDTA, 1 mM EGTA, 0.02% NP-40, 10% v/v glycerol) and stored at −70° C.
# (§2) Compounds were investigated for their CDK2/cyclin E, CDK2/cyclin A, CDK1/cyclin B, and CDK4/cyclin D1 inhibitory activity. His6-tagged recombinant human cyclin-dependent kinases CDK1/cyclin B1, CDK2/cyclin E, CDK2/cyclin A, and CDK4 were expressed in sf9 insect cells using a baculovirus expression system. Recombinant cyclin D1 was expressed in E. coli. Proteins were purified by metal chelate affinity chromatography to greater than 90% homogeneity. Kinase assays were performed in 96-well plates using recombinant CDK/cyclins. Assays were performed in assay buffer (25 mM β-glycerophosphate, 20 mM MOPS, 5 mM EGTA, 1 mM DTT, 1 mM […], pH 7.4), into which were added 2-4 μg of active enzyme with appropriate substrates (purified histone H1 for CDK1 and CDK2, recombinant GST-retinoblastoma protein (residues 773-928) for CDK4). The reaction was initiated by addition of Mg/ATP mix (15 mM MgCl2+100 μM ATP with 30-50 kBq per well of [γ-^32P]-ATP) and mixtures incubated for 10-45 min, as required, at 30° C. Reactions were stopped on ice, followed by filtration through p81 or GF/C filterplates (for CDK4) (Whatman Polyfiltronics, Kent, UK). After washing 3 times with 75 mM aq orthophosphoric acid, plates were dried, scintillant added and incorporated radioactivity measured in a scintillation counter (TopCount, Packard Instruments, Pangbourne, Berks, UK). Compounds for kinase assays were made up as 10 mM stocks in DMSO and diluted into 10% DMSO in assay buffer. Data was analysed using curve-fitting software (GraphPad Prism version 3.00 for Windows, GraphPad Software, San Diego Calif. USA) to determine IC50 values (concentration of test compound which inhibits kinase activity by 50%).
# [3] = target: T3, CDK2/cyclin A (Homo sapiens, UniProt P24941); assay: CDK/cyclin kinase assay, CDK2/cyclin A; assay type: biochemical; details: for IC50: read-out: Kinase inhibition IC50 CDK2/A; for inhibition at 1 µM: primary screening at 1 μM
# T3 construct: His6 (N); made in house; host or cells: Sf9 insect cells (baculovirus)
# Description: as §1, §2
# [4] = target: T4, CDK1/cyclin B1 (Homo sapiens, UniProt P06493); assay: CDK/cyclin kinase assay, CDK1/cyclin B1; assay type: biochemical; details: for IC50: read-out: Kinase inhibition IC50 CDK1/B1; for inhibition at 1 µM: primary screening at 1 μM
# T4 construct: His6 (N); made in house; host or cells: Sf9 insect cells (baculovirus)
# T4 sequence (P06493 whole entry): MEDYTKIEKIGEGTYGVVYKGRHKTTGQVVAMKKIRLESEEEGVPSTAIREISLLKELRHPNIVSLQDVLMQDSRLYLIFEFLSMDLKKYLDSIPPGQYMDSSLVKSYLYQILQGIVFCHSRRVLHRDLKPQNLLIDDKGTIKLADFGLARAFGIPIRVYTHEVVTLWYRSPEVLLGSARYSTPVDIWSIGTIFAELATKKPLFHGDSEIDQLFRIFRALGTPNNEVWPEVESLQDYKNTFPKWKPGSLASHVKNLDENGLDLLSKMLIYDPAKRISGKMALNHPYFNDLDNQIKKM
# T4 sequence (P14635 whole entry partner): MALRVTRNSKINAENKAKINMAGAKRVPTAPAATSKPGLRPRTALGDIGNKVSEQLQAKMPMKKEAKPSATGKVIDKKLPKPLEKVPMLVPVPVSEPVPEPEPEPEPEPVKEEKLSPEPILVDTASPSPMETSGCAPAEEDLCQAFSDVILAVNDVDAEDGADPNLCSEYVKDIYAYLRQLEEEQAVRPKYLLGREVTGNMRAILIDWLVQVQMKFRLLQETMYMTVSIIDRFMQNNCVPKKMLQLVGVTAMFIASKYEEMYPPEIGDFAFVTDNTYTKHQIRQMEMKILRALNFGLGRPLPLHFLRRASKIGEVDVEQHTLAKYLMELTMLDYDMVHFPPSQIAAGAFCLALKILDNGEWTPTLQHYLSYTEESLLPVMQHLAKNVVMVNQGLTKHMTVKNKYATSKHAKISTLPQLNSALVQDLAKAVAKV
# Description: as §1, §2
# [5] = target: T5, CDK4/cyclin D1 (Homo sapiens, UniProt P11802); assay: CDK/cyclin kinase assay, CDK4/cyclin D1; assay type: biochemical; details: for IC50: read-out: Kinase inhibition IC50 CDK4/D1; for inhibition at 1 µM: primary screening at 1 μM
# T5 construct: His6 (N); made in house; host or cells: CDK4: Sf9 insect cells (baculovirus); Cyclin D1: E. coli, Sf9
# T5 sequence (P11802 whole entry): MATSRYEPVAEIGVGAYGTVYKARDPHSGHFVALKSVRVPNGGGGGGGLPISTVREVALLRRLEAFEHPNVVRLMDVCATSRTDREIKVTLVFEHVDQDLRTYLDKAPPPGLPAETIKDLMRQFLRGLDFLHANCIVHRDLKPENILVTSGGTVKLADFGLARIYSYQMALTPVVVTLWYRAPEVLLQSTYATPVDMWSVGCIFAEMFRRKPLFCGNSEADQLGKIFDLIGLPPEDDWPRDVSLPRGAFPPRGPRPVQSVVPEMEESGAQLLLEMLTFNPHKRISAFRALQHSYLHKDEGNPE
# T5 sequence (P24385 whole entry partner): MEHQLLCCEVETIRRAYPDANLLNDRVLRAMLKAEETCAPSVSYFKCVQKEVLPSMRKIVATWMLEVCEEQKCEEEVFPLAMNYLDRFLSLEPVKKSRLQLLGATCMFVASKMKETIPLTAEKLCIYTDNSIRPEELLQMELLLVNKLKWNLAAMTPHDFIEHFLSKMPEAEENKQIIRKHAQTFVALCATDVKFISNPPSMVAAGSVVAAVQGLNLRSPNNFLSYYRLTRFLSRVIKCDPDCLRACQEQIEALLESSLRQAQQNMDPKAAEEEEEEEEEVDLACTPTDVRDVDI
# Description: as §1, §2
# [6] = system: glycogen synthase activity in HEK293 cells; assay: Glycogen synthase (GS) assay in HEK293 cells; assay type: cell-based, human; details: Homo sapiens; In HEK293 cells at [compound] = 5 μM (Table 2)
# Description: Cells on 10 cm dishes (Human Embryonic Kidney (HEK) 293 cells, L6 rat myocytes, or 3T3 mouse adipocytes) were treated with different concentrations of GSK3-inhibitors or DMSO vehicle for 90 min. Incubation medium was removed and cells were washed with ice-cold phosphate-buffered saline (PBS) prior to lysis on ice in 50 mM HEPES, pH 7.5, 10 mM EDTA, 100 mM NaF, 5 mM DTT, protease inhibitor cocktail (Sigma). After a freeze/thaw cycle the samples are sonicated for 10 sec and centrifuged at 15,000 g for 10 min at 4° C. Lysate supernatants were snap-frozen on liquid nitrogen and stored at −80° C. Lysates were assayed for glycogen synthase activity in buffer (50 mM Tris-HCl, pH 7.8, 20 mM EDTA, 25 mM NaF, 5 mM DTT, 1% glycogen, 0.3 mM UDP-glucose and 0.06 μCi of [^14C]-UDP-glucose in the presence of 0.1 or 10 mM glucose-6-phosphate. The reaction was carried out for 30 min at 30° C. 70 μL of the reaction mixture (total volume 90 μL) were transferred to a GFC 96-well filter plate (bottom sealed with foil), containing 140 μL 96% ethanol. The GFC plate was incubated for 1 h on ice and than washed with 66% ethanol. To each well 100 μL scintillant liquid was added and the radioactivity of the samples was measured using a scintillation counter (Topcount, HP). Data are expressed as -fold increase in glycogen synthase activity ratios over those of control samples.
# T1 sequence (G1T8E2 1-432): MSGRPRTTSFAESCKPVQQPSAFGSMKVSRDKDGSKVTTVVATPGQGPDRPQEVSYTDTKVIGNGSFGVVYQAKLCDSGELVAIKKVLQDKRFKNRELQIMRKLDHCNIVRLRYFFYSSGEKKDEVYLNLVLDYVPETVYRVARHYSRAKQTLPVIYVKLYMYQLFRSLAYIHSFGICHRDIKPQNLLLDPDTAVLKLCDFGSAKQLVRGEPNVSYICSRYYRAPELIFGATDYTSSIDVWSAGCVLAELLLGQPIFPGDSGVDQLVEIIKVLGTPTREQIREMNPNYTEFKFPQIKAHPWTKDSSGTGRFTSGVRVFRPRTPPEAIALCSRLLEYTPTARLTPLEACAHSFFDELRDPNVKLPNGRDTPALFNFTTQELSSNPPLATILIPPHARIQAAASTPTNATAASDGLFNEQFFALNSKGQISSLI
IC50 [1],IC50 [2],IC50 [3],IC50 [4],IC50 [5],inhibition at 1 µM [2],inhibition at 1 µM [3],inhibition at 1 µM [4],inhibition at 1 µM [5],Structure (SMILES),fold induction at 5 µM [6]
2.91 µM,> 10 µM,> 10 µM,> 10 µM,> 10 µM,,,,,"Cc1nc(-c2ccnc(Nc3ccc(Cl)nc3)n2)sc1C [XVII, (6-Chloro-pyridin-3-yl)-[4-(4,5-dimethyl-thiazol-2-yl)-pyrimidin-2-yl]-amine]",
3.47 µM,,,,,< 50%,< 50%,< 50%,< 50%,"Cc1nc(-c2ccnc(Nc3cccc(N)c3)n2)sc1C [VIII, N-[4-(4,5-Dimethyl-thiazol-2-yl)-pyrimidin-2-yl]-benzene-1,3-diamine]",
0.91 µM,> 50 µM,> 100 µM,> 100 µM,> 100 µM,,,,,"COc1ccc(Nc2nccc(-c3nccs3)n2)cn1 [XIII, (6-Methoxy-pyridin-3-yl)-(4-thiazol-2-yl-pyrimidin-2-yl)-amine]",1.5
0.47 µM,,,,,< 50%,< 50%,< 50%,< 50%,"Cc1sc(-c2ccnc(Nc3ccc(Cl)cc3)c2)nc1O [XXII, 2-[2-(4-Chloro-phenylamino)-pyridin-4-yl]-5-methyl-thiazol-4-ol]",1.5 ± 0.4
0.09 µM,,,,,< 50%,,,,"Cc1cc(Nc2nccc(-c3nccs3)n2)cnc1Cl [XXVII, (6-Chloro-5-methyl-pyridin-3-yl)-(4-thiazol-2-yl-pyrimidin-2-yl)-amine]",1.5 ± 0.4
0.08 µM,,,,,< 50%,< 50%,< 50%,,"Cc1sc(-c2ccnc(Nc3ccc(Cl)nc3)n2)nc1O [XXV, 2-[2-(6-Chloro-pyridin-3-ylamino)-pyrimidin-4-yl]-5-methyl-thiazol-4-ol]",2.1 ± 0.3
0.135 µM,> 1 µM,> 10 µM,> 10 µM,> 10 µM,,,,,"CCOC(=O)c1sc(-c2ccnc(Nc3ccc(Cl)cc3)n2)nc1O [VII, 2-[2-(4-Chloro-phenylamino)-pyrimidin-4-yl]-4-hydroxy-thiazole-5-carboxylic acid ethyl ester]",2.3
1.53 µM,,,,,< 50%,< 50%,< 50%,< 50%,"Cc1nc(-c2ccnc(Nc3cccc(O)c3)n2)sc1C [IX, 3-[4-(4,5-Dimethyl-thiazol-2-yl)-pyrimidin-2-ylamino]-phenol]",
5.45 µM,> 1 µM,> 10 µM,> 10 µM,> 10 µM,,,,,"COc1ccc(Nc2nccc(-c3nc(C)c(C)s3)n2)cn1 [XVI, [4-(4,5-Dimethyl-thiazol-2-yl)-pyrimidin-2-yl]-(6-methoxy-pyridin-3-yl)-amine]",
12.2 µM,,,,,< 50%,< 50%,< 50%,< 50%,"Cc1nc(-c2ccnc(Nc3cccc(C(F)(F)F)c3)n2)sc1C [Compound X, [4-(4,5-Dimethyl-thiazol-2-yl)-pyrimidin-2-yl]-(3-trifluoromethyl-phenyl)-amine]",
0.164 µM,,,,2.08 µM,< 50%,< 50%,< 50%,,"OCCc1sc(-c2ccnc(Nc3ccc(Cl)nc3)n2)nc1O [XXVI, 2-[2-(6-Chloro-pyridin-3-ylamino)-pyrimidin-4-yl]-5-(2-hydroxy-ethyl)-thiazol-4-ol]",5.2 ± 3.2
0.482 µM,,,,,< 50%,< 50%,< 50%,< 50%,"c1cc(-c2nccs2)nc(Nc2ccc(N3CCCC3)nc2)n1 [XXIII, (6-Pyrrolidin-1-yl-pyridin-3-yl)-(4-thiazol-2-yl-pyrimidin-2-yl)-amine]",1.35 ± 0.07
15.6 µM,,,,,< 50%,< 50%,< 50%,< 50%,"Cc1nc(-c2ccnc(Nc3ccc(Cl)c(C(F)(F)F)c3)n2)sc1C [Compound XI, (4-Chloro-3-trifluoromethyl-phenyl)-[4-(4,5-dimethyl-thiazol-2-yl)-pyrimidin-2-yl]-amine]",
0.019 µM,,,,0.96 µM,< 50%,< 50%,< 50%,,"CCOC(=O)c1sc(-c2ccnc(Nc3ccc(Cl)nc3)n2)nc1O [XXIV, 2-[2-(6-Chloro-pyridin-3-ylamino)-pyrimidin-4-yl]-4-hydroxy-thiazole-5-carboxylic acid ethylester]",4.3 ± 0.32
